# Measurements as given in PubChem BioAssay (NCI).
#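 In this assay, cells in 96-well plates receive the compound at five concentrations for 48 hours. Endpoints are linearly interpolated between the surrounding concentrations. GI50: concentration for 50% inhibition of growth. TGI denotes the concentration required for complete inhibition of growth.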
# Experiments:
# Assay in all cases: inhibition of tumour cell growth, NCI panel, 48 h
# 786-0 renal = test system: 786-0 renal
# A498 renal = test system: A498 renal
# A549 NSCLC = test system: A549 NSCLC
# ACHN renal = test system: ACHN renal
# BT-549 breast = test system: BT-549 breast
# CCRF-CEM leukemia = test system: CCRF-CEM leukemia
# COLO 205 colon = test system: COLO 205 colon
# DU-145 prostate = test system: DU-145 prostate
# EKVX NSCLC = test system: EKVX NSCLC
# HCC-2998 colon = test system: HCC-2998 colon
# HCT-116 colon = test system: HCT-116 colon
# HCT-15 colon = test system: HCT-15 colon
# HL-60(TB) leukemia = test system: HL-60(TB) leukemia
# HOP-62 NSCLC = test system: HOP-62 NSCLC
# HOP-92 NSCLC = test system: HOP-92 NSCLC
# HS 578T breast = test system: HS 578T breast
# HT29 colon = test system: HT29 colon
# IGROV1 ovarian = test system: IGROV1 ovarian
# KM12 colon = test system: KM12 colon
# LOX IMVI melanoma = test system: LOX IMVI melanoma
# M14 melanoma = test system: M14 melanoma
# MALME-3M melanoma = test system: MALME-3M melanoma
# MCF7 breast = test system: MCF7 breast
# MDA-MB-231 breast = test system: MDA-MB-231 breast
# MDA-MB-435 = test system: MDA-MB-435
# MDA-N = test system: MDA-N
# MOLT-4 leukemia = test system: MOLT-4 leukemia
# NCI-H23 lung = test system: NCI-H23 lung
# NCI-H460 lung = test system: NCI-H460 lung
# NCI/ADR-RES ovarian = test system: NCI/ADR-RES ovarian
# OVCAR-3 ovarian = test system: OVCAR-3 ovarian
# OVCAR-4 ovarian = test system: OVCAR-4 ovarian
# OVCAR-5 ovarian = test system: OVCAR-5 ovarian
# PC-3 prostate = test system: PC-3 prostate
# RPMI-8226 leukemia = test system: RPMI-8226 leukemia
# RXF 393 renal = test system: RXF 393 renal
# SF-268 CNS = test system: SF-268 CNS
# SF-295 CNS = test system: SF-295 CNS
# SF-539 CNS = test system: SF-539 CNS
# SK-MEL-2 melanoma = test system: SK-MEL-2 melanoma
# SK-MEL-28 melanoma = test system: SK-MEL-28 melanoma
# SK-MEL-5 melanoma = test system: SK-MEL-5 melanoma
# SK-OV-3 ovarian = test system: SK-OV-3 ovarian
# SN12C renal = test system: SN12C renal
# SNB-19 CNS = test system: SNB-19 CNS
# SNB-75 CNS = test system: SNB-75 CNS
# SR leukemia = test system: SR leukemia
# SW-620 colon = test system: SW-620 colon
# TK-10 renal = test system: TK-10 renal
# U251 CNS = test system: U251 CNS
# UACC-257 melanoma = test system: UACC-257 melanoma
# UACC-62 melanoma = test system: UACC-62 melanoma
# UO-31 renal = test system: UO-31 renal
# CAKI-1 renal = test system: CAKI-1 renal
# K-562 leukemia = test system: K-562 leukemia
# NCI-H226 lung = test system: NCI-H226 lung
# NCI-H522 lung = test system: NCI-H522 lung
# OVCAR-8 ovarian = test system: OVCAR-8 ovarian
# T-47D breast = test system: T-47D breast
compound,measurement,setting,value
CC[CH2][Pb]([CH2]CC)([CH2]CC)[NH]S(=O)(=O)c1ccc(C)cc1,GI50,786-0 renal,57.4 nM
same,TGI,786-0 renal,134 nM
same,GI50,A498 renal,21.5 nM
same,TGI,A498 renal,58 nM
same,GI50,A549 NSCLC,86.8 nM
same,TGI,A549 NSCLC,678 nM
same,GI50,ACHN renal,66.8 nM
same,TGI,ACHN renal,200 nM
same,GI50,BT-549 breast,20.9 nM
same,TGI,BT-549 breast,49.9 nM
same,GI50,CCRF-CEM leukemia,37.1 nM
same,TGI,CCRF-CEM leukemia,230 nM
same,GI50,COLO 205 colon,23.6 nM
same,TGI,COLO 205 colon,52.8 nM
same,GI50,DU-145 prostate,85.3 nM
same,TGI,DU-145 prostate,444 nM
same,GI50,EKVX NSCLC,73.9 nM
same,TGI,EKVX NSCLC,317 nM
same,GI50,HCC-2998 colon,72.7 nM
same,TGI,HCC-2998 colon,200 nM
same,GI50,HCT-116 colon,45.2 nM
same,TGI,HCT-116 colon,179 nM
same,GI50,HCT-15 colon,125 nM
same,TGI,HCT-15 colon,312 nM
same,GI50,HL-60(TB) leukemia,64.3 nM
same,TGI,HL-60(TB) leukemia,272 nM
same,GI50,HOP-62 NSCLC,90.9 nM
same,TGI,HOP-62 NSCLC,422 nM
same,GI50,HOP-92 NSCLC,36 nM
same,TGI,HOP-92 NSCLC,161 nM
same,GI50,HS 578T breast,63.8 nM
same,TGI,HS 578T breast,354 nM
same,GI50,HT29 colon,54.6 nM
same,TGI,HT29 colon,112 nM
same,GI50,IGROV1 ovarian,72.3 nM
same,TGI,IGROV1 ovarian,190 nM
same,GI50,KM12 colon,147 nM
same,TGI,KM12 colon,312 nM
same,GI50,LOX IMVI melanoma,25 nM
same,TGI,LOX IMVI melanoma,65.5 nM
same,GI50,M14 melanoma,61.6 nM
same,TGI,M14 melanoma,219 nM
same,GI50,MALME-3M melanoma,43.1 nM
same,TGI,MALME-3M melanoma,174 nM
same,GI50,MCF7 breast,65.1 nM
same,TGI,MCF7 breast,418 nM
same,GI50,MDA-MB-231 breast,66.1 nM
same,TGI,MDA-MB-231 breast,270 nM
same,GI50,MDA-MB-435,19.4 nM
same,TGI,MDA-MB-435,76.6 nM
same,GI50,MDA-N,29.4 nM
same,TGI,MDA-N,140 nM
same,GI50,MOLT-4 leukemia,74.6 nM
same,TGI,MOLT-4 leukemia,4510 nM
same,GI50,NCI-H23 lung,17.8 nM
same,TGI,NCI-H23 lung,37.5 nM
same,GI50,NCI-H460 lung,137 nM
same,TGI,NCI-H460 lung,277 nM
same,GI50,NCI/ADR-RES ovarian,217 nM
same,TGI,NCI/ADR-RES ovarian,641 nM
same,GI50,OVCAR-3 ovarian,24 nM
same,TGI,OVCAR-3 ovarian,62.5 nM
same,GI50,OVCAR-4 ovarian,68.2 nM
same,TGI,OVCAR-4 ovarian,307 nM
same,GI50,OVCAR-5 ovarian,66.7 nM
same,TGI,OVCAR-5 ovarian,242 nM
same,GI50,PC-3 prostate,70.1 nM
same,TGI,PC-3 prostate,196 nM
same,GI50,RPMI-8226 leukemia,25.9 nM
same,TGI,RPMI-8226 leukemia,131 nM
same,GI50,RXF 393 renal,21.8 nM
same,TGI,RXF 393 renal,86.9 nM
same,GI50,SF-268 CNS,35 nM
same,TGI,SF-268 CNS,117 nM
same,GI50,SF-295 CNS,89.8 nM
same,TGI,SF-295 CNS,203 nM
same,GI50,SF-539 CNS,65.9 nM
same,TGI,SF-539 CNS,155 nM
same,GI50,SK-MEL-2 melanoma,17.6 nM
same,TGI,SK-MEL-2 melanoma,43.6 nM
same,GI50,SK-MEL-28 melanoma,76.4 nM
same,TGI,SK-MEL-28 melanoma,241 nM
same,GI50,SK-MEL-5 melanoma,55.5 nM
same,TGI,SK-MEL-5 melanoma,142 nM
same,GI50,SK-OV-3 ovarian,78.8 nM
same,TGI,SK-OV-3 ovarian,276 nM
same,GI50,SN12C renal,68.1 nM
same,TGI,SN12C renal,172 nM
same,GI50,SNB-19 CNS,34.9 nM
same,TGI,SNB-19 CNS,143 nM
same,GI50,SNB-75 CNS,42.1 nM
same,TGI,SNB-75 CNS,132 nM
same,GI50,SR leukemia,52.2 nM
same,TGI,SR leukemia,279 nM
same,GI50,SW-620 colon,36.4 nM
same,TGI,SW-620 colon,345 nM
same,GI50,TK-10 renal,97.1 nM
same,TGI,TK-10 renal,360 nM
same,GI50,U251 CNS,89 nM
same,TGI,U251 CNS,292 nM
same,GI50,UACC-257 melanoma,77.3 nM
same,TGI,UACC-257 melanoma,245 nM
same,GI50,UACC-62 melanoma,27.2 nM
same,TGI,UACC-62 melanoma,99.5 nM
same,GI50,UO-31 renal,143 nM
same,TGI,UO-31 renal,274 nM
CCCCCCCCCCCC1N=C(N)NC(CCCO)=C1C(=O)OC (stereo not drawn),TGI,A498 renal,41600 nM
same,TGI,A549 NSCLC,30400 nM
same,TGI,ACHN renal,17300 nM
same,TGI,BT-549 breast,23100 nM
same,TGI,CAKI-1 renal,27300 nM
same,TGI,CCRF-CEM leukemia,3790 nM
same,TGI,DU-145 prostate,34600 nM
same,TGI,EKVX NSCLC,40600 nM
same,TGI,HCC-2998 colon,5020 nM
same,TGI,HCT-116 colon,3010 nM
same,TGI,HCT-15 colon,29700 nM
same,TGI,HL-60(TB) leukemia,2810 nM
same,TGI,HOP-62 NSCLC,8530 nM
same,TGI,HOP-92 NSCLC,10700 nM
same,TGI,HS 578T breast,3390 nM
same,TGI,HT29 colon,3050 nM
same,TGI,IGROV1 ovarian,4730 nM
same,TGI,K-562 leukemia,4490 nM
same,TGI,KM12 colon,2810 nM
same,TGI,MALME-3M melanoma,> 62200 nM
same,TGI,MDA-MB-231 breast,6600 nM
same,TGI,MDA-N,> 100000 nM
same,TGI,MOLT-4 leukemia,4750 nM
same,TGI,NCI-H226 lung,32000 nM
same,TGI,NCI-H23 lung,4940 nM
same,TGI,NCI-H522 lung,3720 nM
same,TGI,NCI/ADR-RES ovarian,49500 nM
same,TGI,OVCAR-3 ovarian,9080 nM
same,TGI,OVCAR-4 ovarian,9150 nM
same,TGI,OVCAR-5 ovarian,16600 nM
same,TGI,OVCAR-8 ovarian,6250 nM
same,TGI,PC-3 prostate,3930 nM
same,TGI,RPMI-8226 leukemia,4780 nM
same,TGI,SF-268 CNS,5810 nM
same,TGI,SF-295 CNS,8590 nM
same,TGI,SF-539 CNS,33200 nM
same,TGI,SK-MEL-28 melanoma,12100 nM
same,TGI,SK-MEL-5 melanoma,6330 nM
same,TGI,SK-OV-3 ovarian,8120 nM
same,TGI,SN12C renal,> 100000 nM
same,TGI,SNB-75 CNS,7440 nM
same,TGI,SR leukemia,> 100000 nM
same,TGI,T-47D breast,17500 nM
same,TGI,TK-10 renal,12500 nM
same,TGI,UACC-257 melanoma,11700 nM
same,TGI,UACC-62 melanoma,21500 nM
same,TGI,UO-31 renal,38100 nM
